Results taken from article PMC7589783, “Newly Synthesized Imino-Derivatives Analogues of Resveratrol Exert Inhibitory Effects in Breast Tumor Cells” (International Journal of Molecular Sciences, 2020).
“And” between values parts separate entries of the source, which are not always exact repeats. Equal entries are not always repeated. “Also recorded” adds a separate entry of the source. Where two headings read alike, the source gives them in different places.

Key:
MCF-7 cells = assay: TUNEL assay in MCF-7 cells; type: cell-based, human
Method: (§1) Cell apoptosis was determined by TdT-mediated dUTP Nick-End Labeling (TUNEL) assay, conducted using DeadEnd Fluorometric TUNEL System (Promega, Milan, Italy) and performed according to the manufacturer’s instructions. […] After fixation, cells were permeabilized in 0.2% Triton X-100 solution in PBS for 5 min. After washing twice with washing buffer for 5 min, the cells were covered with equilibration buffer at room temperature for 5–10 min. The labeling reaction was performed using terminal deoxynucleotidyl transferase end-labeling TdT and fluorescein-dUTP cocktail for each sample and incubated for 1 h at 37 ◦C where TdT catalyzes the binding of fluorescein-dUTP to free 3′OH ends in the nicked DNA. After rinsing, cells were washed with 2 × SSC solution buffer and subsequently incubated with 4′,6-Diamidino-2-Phenylindole (DAPI, Sigma-Aldrich, Milan, Italy) to stain nuclei and analyzed using the Cytation 3 Cell Imaging Multimode Reader (BioTek, Winooski, VT, USA). Statistical analysis was done using ANOVA followed by Newman–Keuls’ testing to determine differences in means. p < 0.05 was considered as statistically significant.

[1] = tested on: SkBr3 breast cancer cells; assay: MTT cell viability assay in SkBr3 cells; type: cell-based; settings: Homo sapiens
Method: (§2) SkBr3 cells were maintained in RPMI-1640 (Life Technologies, Milan, Italy) without phenol red, supplemented with 5% fetal bovine serum (FBS) and 100 μg/mL penicillin/streptomycin (Life Technologies, Milan, Italy). MCF-7 and HEK-293 cells were maintained in DMEM (Dulbecco’s modified Eagle’s medium) (Life Technologies, Milan, Italy) with phenol red, with a supplement of 5% FBS and 100 μg/mL of penicillin/streptomycin.
(§3) The effects of each compound on cell viability were determined by the MTT [3-(4,5-dimethylthiazol-2-yl)-2,5-diphenyltetrazolium bromide] assay, as previously reported. Cells were seeded in quadruplicate in 96-well plates in regular growth medium and grown until 70–80% confluence. […] Relative cell viability was determined by MTT assay according to the manufacturer’s protocol (Sigma-Aldrich, Milan, Italy). Mean absorbance for each drug dose was expressed as a percentage of the control untreated well absorbance and plotted versus drug concentration. IC50 values represent the drugs concentration able to reduce the cells viability of 50% respect to the untreated control cells (vehicle).

[2] = In vitro bioavailability, dialysis tubing procedure with pepsin and pancreatin digestion; type: in vitro ADME; settings: for In vitro bioavailability (%) 4 h pH 7.0: after pancreatin digestion (4 h); for In vitro bioavailability (%) 2 h pH 1.0: after pepsin digestion (2 h); for In vitro bioavailability (%) Total 6 h: total after pepsin (2 h) and pancreatin (4 h) digestions
Method: In vitro bioavailability studies of compounds 3, 4 (the salt of compound 3) and resveratrol were performed in solutions simulating gastric and intestinal environment through a modified version of the traditional technique of dialysis membranes. The method of the dialysis membrane is divided in two enzymatic digestion phases: A first phase in which the action of pepsin occurs and a second phase in which participates the pancreatin (see experimental section). Bioavailability is defined as the percentage of analyte recovered in the bio-accessible fraction after in vitro digestion, in relation to the original undigested sample, as calculated according to the following equation [32]:Bioavailability (%) = (Bioaccessible content/Total content) × 100
In vitro bioavailability studies were performed according to the dialysis tubing procedure as previously reported in literature.
For this purpose, 100 µL of each tested compound (10 mM in DMSO) were employed and the concentration of each sample was determined using a UV/VIS spectrometer V-530 (Jasco, Cremella (LC), Italy).
The percentages were calculated according to the equations obtained from the prepared calibration curves at pH 1.0 and 7.0, respectively, for the two tested molecules.
The experiments were carried out in triplicate.

recombinant human topo I = molecular target: T1, recombinant human topo I (Homo sapiens, UniProt P11387); assay: Human topoisomerase I (hTopoI) relaxation assay; type: biochemical; settings: 50 μM
T1 construct: purchased TopoGEN, Port Orange, FL, USA
T1 sequence (P11387 1-765): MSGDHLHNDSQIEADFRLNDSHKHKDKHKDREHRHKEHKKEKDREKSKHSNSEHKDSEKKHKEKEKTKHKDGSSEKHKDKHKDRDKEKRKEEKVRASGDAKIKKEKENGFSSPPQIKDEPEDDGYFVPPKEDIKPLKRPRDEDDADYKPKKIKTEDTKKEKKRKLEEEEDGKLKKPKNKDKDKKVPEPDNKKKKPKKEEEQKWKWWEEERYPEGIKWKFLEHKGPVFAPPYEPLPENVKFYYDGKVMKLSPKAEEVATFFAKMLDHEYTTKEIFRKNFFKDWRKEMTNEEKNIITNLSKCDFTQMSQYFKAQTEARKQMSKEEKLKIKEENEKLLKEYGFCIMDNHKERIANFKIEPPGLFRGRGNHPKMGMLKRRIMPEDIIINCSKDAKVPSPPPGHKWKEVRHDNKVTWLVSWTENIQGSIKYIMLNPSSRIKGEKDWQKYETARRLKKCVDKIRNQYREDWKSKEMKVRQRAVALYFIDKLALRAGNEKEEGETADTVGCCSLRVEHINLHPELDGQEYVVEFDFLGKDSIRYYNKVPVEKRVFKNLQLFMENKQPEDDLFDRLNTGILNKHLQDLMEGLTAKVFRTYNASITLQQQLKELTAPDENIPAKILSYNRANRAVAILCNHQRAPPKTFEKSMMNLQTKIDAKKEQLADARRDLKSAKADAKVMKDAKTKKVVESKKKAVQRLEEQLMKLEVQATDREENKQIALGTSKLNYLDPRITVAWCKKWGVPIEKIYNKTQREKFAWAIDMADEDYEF
Method: Human topoisomerase I relaxation assays were performed incubating the supercoiled pHOT1 (used as substrate) with the recombinant human topo I (TopoGEN, Port Orange, FL, USA) and all the tested compounds, according to the guidelines of the manufacturer (TopoGEN, Port Orange, FL, USA), with some modifications.

human topoisomerase II = molecular target: T2, human topoisomerase II (Homo sapiens, UniProt P11388); assay: Human topoisomerase II (hTopoII) decatenation assay; type: biochemical; settings: 50 μM
T2 construct: purchased TopoGEN, Port Orange, FL, USA
T2 sequence (P11388 whole entry): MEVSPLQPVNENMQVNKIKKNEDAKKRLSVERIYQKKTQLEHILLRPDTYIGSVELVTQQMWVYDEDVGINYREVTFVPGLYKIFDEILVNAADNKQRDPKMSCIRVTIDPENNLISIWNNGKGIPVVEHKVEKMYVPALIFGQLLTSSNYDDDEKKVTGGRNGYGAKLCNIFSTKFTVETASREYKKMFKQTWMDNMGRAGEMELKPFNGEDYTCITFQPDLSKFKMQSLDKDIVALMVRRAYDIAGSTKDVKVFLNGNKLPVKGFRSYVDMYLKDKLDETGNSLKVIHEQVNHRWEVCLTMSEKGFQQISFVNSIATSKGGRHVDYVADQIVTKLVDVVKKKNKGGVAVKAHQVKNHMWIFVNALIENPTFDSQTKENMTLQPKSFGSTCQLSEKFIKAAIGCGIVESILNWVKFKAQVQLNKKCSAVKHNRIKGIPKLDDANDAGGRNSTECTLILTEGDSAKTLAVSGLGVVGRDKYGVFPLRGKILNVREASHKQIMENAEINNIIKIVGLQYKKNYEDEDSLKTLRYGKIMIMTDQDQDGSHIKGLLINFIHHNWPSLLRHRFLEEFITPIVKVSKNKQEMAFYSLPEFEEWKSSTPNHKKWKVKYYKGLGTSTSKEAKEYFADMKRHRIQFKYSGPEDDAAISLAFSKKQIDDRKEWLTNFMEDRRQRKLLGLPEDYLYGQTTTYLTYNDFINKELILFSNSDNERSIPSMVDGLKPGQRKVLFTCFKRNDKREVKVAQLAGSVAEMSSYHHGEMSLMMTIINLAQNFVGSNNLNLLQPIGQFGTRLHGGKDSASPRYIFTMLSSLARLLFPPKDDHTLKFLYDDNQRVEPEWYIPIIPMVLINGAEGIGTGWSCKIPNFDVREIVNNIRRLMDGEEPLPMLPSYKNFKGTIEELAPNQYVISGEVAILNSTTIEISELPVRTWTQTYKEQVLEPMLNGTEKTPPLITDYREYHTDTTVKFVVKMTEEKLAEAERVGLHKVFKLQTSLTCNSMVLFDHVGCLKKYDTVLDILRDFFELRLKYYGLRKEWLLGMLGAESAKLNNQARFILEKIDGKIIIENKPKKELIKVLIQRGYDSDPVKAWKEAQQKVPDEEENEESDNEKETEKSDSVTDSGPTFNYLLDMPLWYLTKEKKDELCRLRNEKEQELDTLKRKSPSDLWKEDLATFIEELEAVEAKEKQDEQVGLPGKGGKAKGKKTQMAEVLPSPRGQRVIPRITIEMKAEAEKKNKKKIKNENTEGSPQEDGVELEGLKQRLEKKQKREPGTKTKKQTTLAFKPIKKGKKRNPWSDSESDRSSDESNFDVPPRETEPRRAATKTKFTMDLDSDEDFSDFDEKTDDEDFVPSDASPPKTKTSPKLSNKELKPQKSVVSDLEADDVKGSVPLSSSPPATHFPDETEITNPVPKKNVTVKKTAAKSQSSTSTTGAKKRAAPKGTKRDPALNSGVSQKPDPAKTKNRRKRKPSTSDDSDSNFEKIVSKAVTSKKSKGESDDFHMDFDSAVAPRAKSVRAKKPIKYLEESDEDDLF
Method: Human topoisomerase II decatenation assays were carried out incubating the human topoisomerase II (TopoGEN, Port Orange, FL, USA) with kinetoplast DNA (used as substrate) and all the tested compounds, according to the guidelines of the manufacturer (TopoGEN, Port Orange, FL, USA), with some modifications.

SkBr3 cells = assay: TUNEL assay in SkBr3 cells; type: cell-based, human
Method: as §1

[3] = tested on: human embryonic kidney 293 (HEK293) cells; assay: MTT cell viability assay in HEK293 cells; type: cell-based; settings: for IC50: Homo sapiens, HEK293, 48 h treatment, MTT assay, read-out: IC50 (µM) ± S.D. HEK293; for Anti-proliferative / inhibitory effects in non-tumoral HEK293 cells: result in words
Method: as §2, §3

[4] = tested on: MCF-7 breast cancer cells; assay: MTT cell viability assay in MCF-7 cells; type: cell-based; settings: Homo sapiens
Method: as §2, §3

[5] = SK-BR-3, 48 h treatment, read-out: IC50 (µM) ± S.D. SkBr3
[6] = MCF7, 48 h treatment, read-out: IC50 (µM) ± S.D. MCF-7
[7] = 50 µM for 48 h (data not shown)

Row | Structure (SMILES) | Percentage of TUNEL-positive cells, MCF-7 (MCF-7 cells; 10 μM for 24 h, versus vehicle) | IC50 [1, 5] | In vitro bioavailability (%) 4 h pH 7.0 [2] | In vitro bioavailability (%) 2 h pH 1.0 [2] | In vitro bioavailability (%) Total 6 h [2] | Inhibition of hTopoI (relaxation of supercoiled DNA) (recombinant human topo I) | Inhibition of hTopoII activity (kDNA decatenation) (human topoisomerase II) | Percentage of TUNEL-positive cells, SkBr3 (SkBr3 cells; 10 μM for 24 h, versus vehicle) | IC50 [3] | Anti-proliferative / inhibitory effects in non-tumoral HEK293 cells [3] | IC50 [4, 6] | TUNEL staining, MCF-7 (MCF-7 cells; [7]) | IC50 ([1]; SK-BR-3, treatment time not given, read-out: IC50, cytotoxic activity, SkBr3) | TUNEL staining, SkBr3 (SkBr3 cells; [7]) | IC50 ([4]; MCF7, treatment time not given, read-out: IC50, cytotoxic activity, MCF-7)
1 | O=C(O)c1ccc(/N=C/c2cc(O)ccc2O)cc1 [Compound 3, (E)-4-(2,5-dihydroxybenzylidene)-imino-benzoic acid] | increased the percentage | 15 µM | 31% and 31 ± 1.1% | 16% and 16 ± 0.7% | 47% and 47 ± 1.6% | no inhibition of hTopoI was observed | able to inhibit | increased the percentage | > 90 µM | did not elicit inhibitory effects; also recorded: did not induce inhibitory effects | 12 µM |  |  |  | 
2 | O=C(O)c1ccc(/N=C/c2cc(O)ccc2O)cc1 [Compound 4, (E)-4-(2,5-dihydroxybenzylidene)-imino-sodium benzoate] |  |  | 28% and 28 ± 0.9% | 17% and 17 ± 0.8% | 45% and 45 ± 1.3% | no inhibition of hTopoI was observed | able to inhibit |  |  | did not elicit anti-proliferative effects; also recorded: did not induce inhibitory effects |  | positive for TUNEL staining | 62 µM | positive for TUNEL staining | 50 µM
3 | O=C(O)c1ccc(/N=C/c2cc(O)cc(O)c2)cc1 [Compound 6, (E)-4-(3,5-dihydroxybenzylidene)-imino-benzoic acid] |  | > 90 µM |  |  |  |  |  |  | > 90 µM |  | > 90 µM |  |  |  | 
4 | Oc1ccc(C=Cc2cc(O)cc(O)c2)cc1 [resveratrol, 3, 4′,5-trihydroxy-stilbene] |  | > 90 µM | 23 ± 0.8% | 12 ± 0.6% | 35% and 35 ± 1.1% | no inhibition of hTopoI was observed | inhibited the hTopoII |  | > 90 µM |  | > 90 µM |  |  |  | 
